The assay concerns the target T1, KRAS 4B G12C protein (Homo sapiens, UniProt P01116, G12C).
T1 construct: This protein contained 188 amino acids in total, including an N-terminal 6-Histidine tag; made in house; host or cells: E. coli BL21
Briefly: In vitro covalent adduct formation (CAF) assay by LC-MS. The conditions noted are these: compound 10 μM, protein 5 μM, 22° C., percentage of protein bound by the compound. The class given is binding. In short, it runs like this: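 Percent of protein covalently modified was quantified from intact-mass LC-MS ratios of free versus adducted protein, adducts within 1 Da of expected mass. Reactions: 10 μM compound, 5 μM His-TEV-KRAS 4B G12C (1-169) in TBS pH 7.4, 4% DMSO, 22° C., one hour, run in duplicate.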

Turning to `C=C(F)C(=O)N1CCN(c2nc(OC[C@@H]3CCCN3C)nc3c2CN(Cc2cc(NC)ncc2Cl)C3)C[C@@H]1CC#N` [1-340], the “CAF (10 minutes/60 minutes) at 10 micromolar: 10 minutes” value (shortened to “CAF … at 10 micromolar: 10 minutes”) is given as 0% and the “CAF (10 minutes/60 minutes) at 10 micromolar: 60 minutes” value (shortened to “CAF … at 10 micromolar: 60 minutes”) was 7%. As to `C=CC(=O)N1CCN(c2nc(OC[C@@H]3CCCN3CC(F)(F)F)nc3c2CN(C2CCc4ccccc42)C3)C[C@@H]1CC#N` (stereo partly drawn) [1-141], the “CAF … at 10 micromolar: 10 minutes” value was 51% and the “CAF … at 10 micromolar: 60 minutes” value is recorded as 71%. For the compound `C=CC(=O)N1CC2CCC1CN2c1nc(OC[C@@H]2CCCN2C)nc2c1CN(Cc1cc(O)ccc1Cl)C2` (stereo partly drawn) [1-160], the “CAF … at 10 micromolar: 10 minutes” value is recorded as 34% and the “CAF … at 10 micromolar: 60 minutes” value amounted to 67%.

In the case of `C=CC(=O)N1CCN(c2nc(OC[C@@H]3CCCN3C)nc3c2CN(Cc2cc(O)ccc2Cl)C3)C2COCC21` (stereo partly drawn) [1-315], the “CAF … at 10 micromolar: 10 minutes” value is reported as 41% and the “CAF … at 10 micromolar: 60 minutes” value turned out to be 66%. As for `C=CC(=O)N1CCN(c2nc(OC[C@@H]3CCCN3C)nc3c2CN(Cc2c(F)cccc2F)C3)C[C@@H]1CC#N` [1-61], the “CAF … at 10 micromolar: 60 minutes” value is given as “NA/ 80%”. With `C=CC(=O)N1CCN(c2nc(OC[C@@H]3CCCN3C)nc3c2CN(Cc2c(CC)ccc(O)c2C)C3)C[C@@H]1CC#N` [1-255], the “CAF … at 10 micromolar: 10 minutes” value is given as 92% and the “CAF … at 10 micromolar: 60 minutes” value is recorded as 94%. As for `C=CC(=O)N1CCN(c2nc(OC[C@@H]3CCCN3C)nc3c2CN(Cc2c(Cl)cccc2OC)C3)C[C@@H]1CC(F)(F)F` [1-125], the “CAF … at 10 micromolar: 10 minutes” value worked out at 0%/ 0% and the “CAF … at 10 micromolar: 60 minutes” value is recorded as 0%/ 0%.

With `C=CC(=O)N1CCN(c2nc(OCCN3CCOCC3)nc3c2CN(Cc2cc(O)ccc2C)C3)[C@@H](C)C1` [1-123], the “CAF … at 10 micromolar: 10 minutes” value was determined as 0% and the “CAF … at 10 micromolar: 60 minutes” value is 2%.

For the compound `C=CC(=O)N1CCN(c2nc(OC[C@@H]3C[C@H](F)CN3C)nc3c2CN(C2CCc4ccccc42)C3)C[C@@H]1CC#N` (stereo partly drawn) [1-128], the “CAF … at 10 micromolar: 10 minutes” value was determined as 52% and the “CAF … at 10 micromolar: 60 minutes” value is on record as 63%. `CN1CCC[C@H]1COc1nc2c(c(N3CCN(C(=O)C45CC4C5)[C@@H](CC#N)C3)n1)CN(Cc1ccccc1Cl)C2` (stereo partly drawn) [1-317]: the “CAF … at 10 micromolar: 10 minutes” value turned out to be 0%/ 0% and the “CAF … at 10 micromolar: 60 minutes” value was 0%/ 0%. Turning to `C=CC(=O)N1CCN(c2nc(OC[C@@H]3CCCN3C)nc3c2CN(Cc2cc(Cl)ccc2F)C3)C[C@@H]1CC#N` [1-49], the “CAF … at 10 micromolar: 10 minutes” value is 81% and the “CAF … at 10 micromolar: 60 minutes” value came to 97%. As for `C=CC(=O)N1CCN(c2nnc(OC)c3c2CN(Cc2cc(O)ccc2C)C3)[C@@H](C)C1` [1-37], the “CAF … at 10 micromolar: 10 minutes” value is 0%/ 0% and the “CAF … at 10 micromolar: 60 minutes” value was found to be 0%/ 0%. With `C=CC(=O)N1CCN(c2nc(OC[C@@H]3CCCN3C)nc3c2CN(Cc2c(O)cccc2F)C3)C[C@@H]1CC#N` [1-7, 2-((S)-1-acryloyl-4-(6-(2-fluoro-6-hydroxybenzyl)-2-(((S)-1-methylpyrrolidin-2-yl)methoxy)-6,7-dihydro-5H-pyrrolo[3,4-d]pyrimidin-4-yl)piperazin-2-yl)acetonitrile], the “CAF … at 10 micromolar: 10 minutes” value amounted to 96% and the “CAF … at 10 micromolar: 60 minutes” value is recorded as 97%. Consider `C=CC(=O)N1CCN(c2nc(OC[C@@H]3CCCN3C)nc3c2CN(Cc2c(F)cccc2Cl)C3)C[C@@H]1CC#N` [1-112], for which the “CAF … at 10 micromolar: 10 minutes” value is listed as 98% and the “CAF … at 10 micromolar: 60 minutes” value was found to be 99%. As for `C=CC(=O)N1CCN(c2nc(OC[C@@H]3CCCN3C)nc3c2CN(Cc2c(F)cccc2OC)C3)C[C@@H]1CC#N` [1-36], the “CAF … at 10 micromolar: 10 minutes” value is 91% and the “CAF … at 10 micromolar: 60 minutes” value worked out at 97%. As to `C=CC(=O)N1[C@H](C)CN(c2nc(OC[C@@H]3CCCN3C)nc3c2CN(Cc2c(Cl)ccc(O)c2C)C3)C[C@H]1C` [1-341], the “CAF … at 10 micromolar: 10 minutes” value is on record as 0%/ 0% and the “CAF … at 10 micromolar: 60 minutes” value was 0%/ 0%. `C=CC(=O)N1CCN(c2nc(OC[C@@H]3CCCN3C)nc3c2CN(Cc2c(Cl)cccc2OC)C3)C[C@@H]1CO` [1-107]: the “CAF … at 10 micromolar: 10 minutes” value came to 0% and the “CAF … at 10 micromolar: 60 minutes” value is given as 3%. Consider `C=CC(=O)N1CCN(c2nc(OC[C@@H]3CCCN3C)nc3c2CN(Cc2cc(OC(F)F)ccc2Cl)C3)C[C@@H]1CC#N` [1-53], for which the “CAF … at 10 micromolar: 10 minutes” value is reported as 40% and the “CAF … at 10 micromolar: 60 minutes” value was found to be 86%. For the compound `C=CC(=O)N1CCN(c2nc(OC[C@@H]3CCC(=O)N3C)nc3c2CN(C2CCc4ccccc42)C3)C[C@@H]1CC#N` (stereo partly drawn) [1-122], the “CAF … at 10 micromolar: 10 minutes” value was 21% and the “CAF … at 10 micromolar: 60 minutes” value turned out to be 57%. The like results for `C=C(F)C(=O)N1CCN(c2nc(OC[C@@H]3CCCN3C)nc3c2CN(Cc2nc(NC)ccc2Cl)C3)C[C@@H]1CC#N` [1-361] were, in that order, 16% and 61%.

With `C=CC(=O)N1CCN(c2nc(OC[C@@H]3CCCN3C)nc3c2CN(C2CCc4ccccc42)C3)C[C@@H]1Cn1ccnc1` (stereo partly drawn) [1-219], the “CAF … at 10 micromolar: 10 minutes” value came to 0% and the “CAF … at 10 micromolar: 60 minutes” value turned out to be 1%. Taken in the same sequence, the figures for `CN1CCC[C@H]1COc1nc2c(c(N3CCN(C(=O)C45CC4C5)[C@@H](CC#N)C3)n1)CN(C1CCc3ccccc31)C2` (stereo partly drawn) [1-316] were 0%/ 0% and 0%/ 0%. Consider `C=CC(=O)N1CCN(c2nc(OC[C@@H]3CCCN3C)nc3c2CN(C2CCc4ccccc42)C3)C[C@@H]1C(O)C(F)(F)F` (stereo partly drawn) [1-117], for which the “CAF … at 10 micromolar: 10 minutes” value is 0% and the “CAF … at 10 micromolar: 60 minutes” value stood at 4%.

On to `C=CC(=O)N1CCN(c2nc(OC[C@@H]3CCCN3C)nc3c2CN(Cc2cc(F)ccc2F)C3)C[C@@H]1CC#N` [1-27], for which the “CAF … at 10 micromolar: 10 minutes” value is 68% and the “CAF … at 10 micromolar: 60 minutes” value turned out to be 97%. On to `C=C(F)C(=O)N1CCN(c2nc(OC[C@@H]3CCCN3C)nc3c2CN(C2CCc4ccc(Cl)c(Cl)c42)C3)C[C@@H]1CC#N` (stereo partly drawn) [1-337], for which the “CAF … at 10 micromolar: 10 minutes” value came out at 27% and the “CAF … at 10 micromolar: 60 minutes” value stood at 74%. Take `C=CC(=O)N1CCN(c2nc(OC[C@@H]3CCCN3C)nc3c2CN(c2cccc4ccccc24)C3)C[C@@H]1CC#N` [1-9, 2-[(2S)-4-(2-{[(2S)-1-methylpyrrolidin-2-yl]methoxy}-6-(naphthalen-1-yl)-5H,7H-pyrrolo[3,4-d]pyrimidin-4-yl)-1-(prop-2-enoyl)piperazin-2-yl]acetonitrile]: the “CAF … at 10 micromolar: 10 minutes” value was 35% and the “CAF … at 10 micromolar: 60 minutes” value was 85%. The like results for `C=CC(=O)N1CCN(c2nc(OC[C@@H]3CCCN3C)nc3c2CN(Cc2ccccc2C)C3)C[C@@H]1CC#N` [1-45] were, in that order, 94% and 98%.

As for `C=C(F)C(=O)N1CCN(c2nc(OC[C@@H]3CCCN3C)nc3c2CN(Cc2c(Cl)ccc4nc[nH]c24)C3)C[C@@H]1CC#N` [1-320], the “CAF … at 10 micromolar: 10 minutes” value is listed as 76% and the “CAF … at 10 micromolar: 60 minutes” value stood at 91%. Turning to `C=CC(=O)N1CCN(c2nc(OC[C@@H]3CCCN3C)nc3c2CN(Cc2ccccc2C(C)CC)C3)C[C@@H]1CC#N` (stereo partly drawn) [1-188], the “CAF … at 10 micromolar: 10 minutes” value was 47% and the “CAF … at 10 micromolar: 60 minutes” value amounted to 79%. As to `C=CC(=O)N1CCN(c2nc(OCCCN3CCOCC3)nc3c2CN(C2CCc4ccccc42)C3)C[C@@H]1CC#N` (stereo partly drawn) [1-131], the “CAF … at 10 micromolar: 10 minutes” value was 76% and the “CAF … at 10 micromolar: 60 minutes” value is 97%. For `C=CC(=O)N1CCN(c2nc(OC[C@@H]3CCCN3C)nc3c2CN(Cc2c(Cl)cccc2OC(F)F)C3)CC1` [1-94], the “CAF … at 10 micromolar: 10 minutes” value is listed as 0%/ 0% and the “CAF … at 10 micromolar: 60 minutes” value was determined as 0%/ 0%. `C=CC(=O)N1CCN(c2nc(OC[C@@H]3CCCN3C)nc3c2CN(C2CCc4ccccc42)C3)C[C@@H]1CS(C)(=O)=O` (stereo partly drawn) [1-200]: the “CAF … at 10 micromolar: 10 minutes” value is 0% and the “CAF … at 10 micromolar: 60 minutes” value is 2%.

In the case of `C=CC(=O)N1CCN(c2nc(OC[C@@H]3CCCN3C)nc3c2CN(Cc2c(F)cccc2F)C3)[C@@H](C)C1` [1-14], the “CAF … at 10 micromolar: 10 minutes” value is listed as 0% and the “CAF … at 10 micromolar: 60 minutes” value is 8%. Take `C=CC(=O)N1CCN(c2nc(OC[C@@H]3CCCN3C)nc3c2CN(C2CCc4ccccc42)C3)C[C@@H]1CC#N` (stereo partly drawn) [1-42]: the “CAF … at 10 micromolar: 10 minutes” value came out at 84% and the “CAF … at 10 micromolar: 60 minutes” value stood at 95%. With `C=CC(=O)N1CCN(c2nc(OC[C@@H]3CCCN3C)nc3c2CN(Cc2c(Cl)cccc2OC)C3)C[C@@H]1CCO` [1-92], the “CAF … at 10 micromolar: 10 minutes” value is 0%/ 0% and the “CAF … at 10 micromolar: 60 minutes” value was found to be 0%/ 0%. Take `C=CC(=O)N1CCN(c2nc(OC[C@@H]3CCCN3C)nc3c2CN(Cc2cc(O)ccc2CC)C3)C[C@@H]1CC#N` [1-184]: the “CAF … at 10 micromolar: 10 minutes” value is 96% and the “CAF … at 10 micromolar: 60 minutes” value is reported as 97%.

For `C=CC(=O)N1CCN(c2nc(O)nc3c2CN(C2CCc4ccccc42)C3)C[C@@H]1CC#N` (stereo partly drawn) [1-135], the “CAF … at 10 micromolar: 10 minutes” value worked out at 0% and the “CAF … at 10 micromolar: 60 minutes” value turned out to be 7%. In the case of `C=CC(=O)N1CCN(c2nc(OC)nc3c2CN(Cc2cc(O)ccc2Cl)C3)C[C@@H]1CC#N` [1-78], the “CAF … at 10 micromolar: 10 minutes” value is reported as 89% and the “CAF … at 10 micromolar: 60 minutes” value worked out at 97%.

The values are drawn from patent US20210292330A1, “PYRROLIDINE-FUSED HETEROCYCLES” (Erasca, Inc., priority 2020, published 2021).
